Experimental data reported in patent publication US20250127937A1, “FAP INHIBITOR” (UNIVERSITÄT HEIDELBERG, priority 2018, published 2025).
Read-outs that look alike come from different tables or passages of the source.

Experiments:
human FAP-α = human FAP-α (Homo sapiens (Human), UniProt Q12884); test: Competitive binding of radiolabeled compound to HT-1080-FAP cells against unlabeled compound; settings: for IC50: read-out: IC50; for IC50-values: Cu-64 labeled
Protocol: Competition experiments were performed by simultaneous exposure to unlabeled (10^−5 M to 10^−9M) and radiolabeled compound for 60 min. […] For internalization experiments, surface bound activity was removed by incubating the cells with 1 M glycine-HCl buffer for 10 min. The radioactivity was measured using a γ-counter, normalized to 1 mio cells and calculated as percentage of applied dose (% ID).
The medium was replaced by 1 mL fresh medium without fetal calf serum. […] Competition experiments were performed by simultaneous exposure to unlabeled (10^−5 M to 10^−9 M) and radiolabeled compound for 60 min. […] In all experiments, the cells were washed with 1 mL phosphate-buffered saline pH 7.4 for 2 times and subsequently lysed with 1.4 ml lysis buffer (0.3 M NaOH, 0.2% SDS). Radioactivity was determined in a γ-counter (Cobra II, Packard), normalized to 1 mio cells and calculated as percentage of the applied dose (% ID). Each experiment was performed 3 times, and 3 repetitions per independent experiment were acquired.

[1] = test system: HT-1080-FAP tumor xenografts; test: Organ distribution ex vivo in HT-1080-FAP tumor bearing nude mice; design: species or system mouse; settings: for Tumor uptake 1 h / Tumor uptake 4 h / Tumor uptake 24 h: HT-1080-FAP tumor bearing nude mice, mean ± SD, n = 3
Protocol: (§1) For in vivo experiments, 8 week old BALB/c nu/nu mice (Charles River) were subcutaneously inoculated into the right trunk with 5×10^6 with HT-1080-FAP, Capan-2 or SK-LMS-1 cells, respectively. When the size of the tumor reached approximately 1 cm^3, the radiolabeled compound was injected via the tail vein (˜10 MBq for small-animal PET imaging; ˜1 MBq for organ distribution). PET imaging was performed up to 140 min after intravenous injection of 1 MBq of Ga-68 labeled compound per mouse using the Inveon PET small-animal PET scanner (Siemens). Images were reconstructed iteratively using the 3D-OSEM+MAP method and were converted to standardized uptake value (SUV) images. Quantification was done using a ROI technique and expressed as SUV mean. For organ distribution of Lu-177 labeled compound (approx. […] per mouse), the animals (n=3 for each time point) were sacrificed after indicated time points (from 30 min to 24 h). The distributed radioactivity was measured in all dissected organs and in blood using a γ-counter (Cobra Autogamma, Packard). The values are expressed as percentage of injected dose per gram of tissue (% ID/g).

[2] = Blood pool clearance from SUVmean of the heart; type: in vivo; settings: for Plateau value (SUVmean): hypothetical plateau, two phase exponential decay of heart SUVmean; for Blood pool-clearence (T1/2 [min]): rate determining half-life, two phase exponential decay of heart SUVmean 0.375-60 min
Description: The calculated plateau values, which were higher for Ga-68 labeled FAPI-13, -21, -36 and AlF-18 labeled FAPI-74 theoretically correspond to a higher fraction of compound which is not cleared due to unspecific binding or by remaining in circulating (Table 12).

[3] = test system: HT-1080-FAP tumor xenografts; test: Small-animal imaging (PET, scintigraphy) in HT-1080-FAP tumor bearing mice; type: in vivo, mouse; settings: for tumor uptake in vivo: Tc-99m labeled, scintigraphy
Protocol: as §1, with “PET imaging was performed up to 140 min after intravenous injection of 1 MBq of Ga-68 labeled compound per mouse using the Inveon PET small-animal PET scanner (Siemens).” left out

HT-1080-FAP cells = test: Efflux experiments in HT-1080-FAP cells; type: cell-based, human; settings: Cu-64 labeled
Protocol: Radioligand binding studies were performed using HT-1080-FAP cells. The radiolabeled compound was added to the cell culture and incubated for different time intervals ranging from 10 min to 24 h. Competition experiments were performed by simultaneous exposure to unlabeled (10^−5 M to 10^−9M) and radiolabeled compound for 60 min. For efflux experiments, radioactive medium was removed after incubation for 60 min and replaced by non-radioactive medium for time intervals ranging from 1 to 24 h. For internalization experiments, surface bound activity was removed by incubating the cells with 1 M glycine-HCl buffer for 10 min. The radioactivity was measured using a γ-counter, normalized to 1 mio cells and calculated as percentage of applied dose (% ID).
For radioligand binding studies, cells were seeded in 6-well plates and cultivated for 48 h to a final confluence of approx. 80-90% (1.2-2 mio cells/well). The medium was replaced by 1 mL fresh medium without fetal calf serum. The radiolabeled compound was added to the cell culture and incubated for different time intervals ranging from 10 min to 24 h. Competition experiments were performed by simultaneous exposure to unlabeled (10^−5 M to 10^−9 M) and radiolabeled compound for 60 min. For efflux experiments, radioactive medium was removed after incubation for 60 min and replaced by non-radioactive medium for time intervals ranging from 1 to 24 h. In all experiments, the cells were washed with 1 mL phosphate-buffered saline pH 7.4 for 2 times and subsequently lysed with 1.4 ml lysis buffer (0.3 M NaOH, 0.2% SDS). Radioactivity was determined in a γ-counter (Cobra II, Packard), normalized to 1 mio cells and calculated as percentage of the applied dose (% ID). Each experiment was performed 3 times, and 3 repetitions per independent experiment were acquired.

[4] = Lu-177-labeled compound, unlabeled compound as competitor, HT-1080-FAP cells

Sequence of human FAP-α (Q12884 whole entry): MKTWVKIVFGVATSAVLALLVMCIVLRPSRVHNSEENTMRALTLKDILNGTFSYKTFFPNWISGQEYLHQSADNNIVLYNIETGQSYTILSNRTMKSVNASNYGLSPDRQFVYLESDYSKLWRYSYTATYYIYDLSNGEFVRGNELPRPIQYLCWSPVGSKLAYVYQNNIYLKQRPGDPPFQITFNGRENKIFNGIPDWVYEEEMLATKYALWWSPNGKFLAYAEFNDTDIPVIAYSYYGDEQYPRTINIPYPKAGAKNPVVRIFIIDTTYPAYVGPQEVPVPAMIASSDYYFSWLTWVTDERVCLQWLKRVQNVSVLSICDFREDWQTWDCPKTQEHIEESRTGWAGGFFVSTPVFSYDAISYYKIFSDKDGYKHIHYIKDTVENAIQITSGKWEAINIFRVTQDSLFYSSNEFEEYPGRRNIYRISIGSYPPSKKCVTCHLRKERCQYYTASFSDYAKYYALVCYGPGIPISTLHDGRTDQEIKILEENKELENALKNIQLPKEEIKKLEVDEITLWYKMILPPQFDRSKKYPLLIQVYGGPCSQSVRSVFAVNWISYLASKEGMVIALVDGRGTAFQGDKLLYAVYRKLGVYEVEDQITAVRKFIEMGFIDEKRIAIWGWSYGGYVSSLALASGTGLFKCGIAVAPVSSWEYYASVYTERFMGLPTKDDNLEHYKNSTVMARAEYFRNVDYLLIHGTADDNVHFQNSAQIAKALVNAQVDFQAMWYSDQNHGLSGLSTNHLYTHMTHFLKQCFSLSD

N#C[C@@H]1CC(F)(F)CN1C(=O)CNC(=O)c1ccnc2ccc(OCCCCN3CCN(C(=O)CN4CCN(CC(=O)O)CCN(CC(=O)O)CCN(CC(=O)O)CC4)CC3)cc12 [FAPI-05]
IC50 (human FAP-α; [4]): 17.2 nM | Tumor uptake 1 h [1]: 6.0 ± 0.90 % ID/g | Tumor uptake 4 h [1]: 5.8 ± 0.60 % ID/g | Tumor uptake 24 h [1]: 2.8 ± 0.40 % ID/g

N#C[C@@H]1CC(F)(F)CN1C(=O)CNC(=O)c1ccnc2ccc(OCCCC3CCN(C(=O)CN4CCN(CC(=O)O)CCN(CC(=O)O)CCN(CC(=O)O)CC4)CC3)cc12 [FAPI-13]
IC50 (human FAP-α; [4]): 4.5 nM | Plateau value (SUVmean) [2]: 0.27 | Blood pool-clearence (T1/2 [min]) [2]: 5.5 min | Tumor uptake 1 h [1]: 6.3 ± 0.57 % ID/g | Tumor uptake 4 h [1]: 8.7 ± 0.77 % ID/g | Tumor uptake 24 h [1]: 4.8 ± 1.71 % ID/g

N#C[C@@H]1CC(F)(F)CN1C(=O)CNC(=O)c1ccnc2ccc(OCCOCCOCCN3CCN(C(=O)CN4CCN(CC(=O)O)CCN(CC(=O)O)CCN(CC(=O)O)CC4)CC3)cc12 [FAPI-15]
IC50 (human FAP-α; [4]): 9.1 nM | Tumor uptake 1 h [1]: 3.4 ± 1.13 % ID/g | Tumor uptake 4 h [1]: 4.6 ± 0.32 % ID/g | Tumor uptake 24 h [1]: 1.1 ± 0.25 % ID/g

N#C[C@@H]1CC(F)(F)CN1C(=O)CNC(=O)c1ccnc2ccc(OCCCN3CCN(C(=O)CN(Cc4nccn4CC(=O)O)Cc4nccn4CC(=O)O)CC3)cc12 [FAPI-19]
IC50 (human FAP-α; Tc-99m labeled, HT-1080-FAP cells): 6.4 nM | tumor uptake in vivo [3]: insufficient tumor uptake

N#C[C@@H]1CC(F)(F)CN1C(=O)CNC(=O)c1ccnc2ccc(OCCCN3C[C@@H]4C[C@H]3CN4C(=O)CN3CCN(CC(=O)O)CCN(CC(=O)O)CCN(CC(=O)O)CC3)cc12 [FAPI-20]
IC50 (human FAP-α; [4]): 7.2 nM

N#C[C@@H]1CC(F)(F)CN1C(=O)CNC(=O)c1ccnc2ccc(OCCCN3CCN(C(=O)CN(Cc4nccn4CC(=O)N[C@@H](CC(C(=O)O)C(=O)O)C(=O)O)Cc4nccn4CC(=O)N[C@@H](CC(C(=O)O)C(=O)O)C(=O)O)CC3)cc12 [FAPI-34]
tumor uptake in vivo [3]: continuously enriched within the tumor

N#C[C@@H]1CC(F)(F)CN1C(=O)CNC(=O)c1ccnc2ccc(CCCCN3CCN(C(=O)CN4CCN(CC(=O)O)CCN(CC(=O)O)CCN(CC(=O)O)CC4)CC3)cc12 [FAPI-39]
IC50 (human FAP-α; [4]): 11.3 nM

N#C[C@@H]1CC(F)(F)CN1C(=O)CNC(=O)c1ccnc2ccc(SCCCN3CCN(C(=O)CN4CCN(CC(=O)O)CCN(CC(=O)O)CCN(CC(=O)O)CC4)CC3)cc12 [FAPI-40]
IC50 (human FAP-α; [4]): 12.7 nM

N#C[C@@H]1CC(F)(F)CN1C(=O)CNC(=O)c1ccnc2ccc(NCCCN3CCN(C(=O)CN4CCN(CC(=O)O)CCN(CC(=O)O)CCN(CC(=O)O)CC4)CC3)cc12 [FAPI-41]
IC50 (human FAP-α; [4]): 8.3 nM

N#C[C@@H]1CC(F)(F)CN1C(=O)CNC(=O)c1ccnc2ccc(OCCCN3CCN(C(=O)CN4CCN(CC(=O)O)CCN(CC(=O)O)CC4)CC3)cc12 [FAPI-42]
IC50-values (human FAP-α; HT-1080-FAP cells): lower nanomolar range | calculated in vitro-half-life (efflux) (HT-1080-FAP cells): 12 h

CN(CCCN1CCN(C(=O)CN2CCN(CC(=O)O)CCN(CC(=O)O)CCN(CC(=O)O)CC2)CC1)c1ccc2nccc(C(=O)NCC(=O)N3CC(F)(F)C[C@H]3C#N)c2c1 [FAPI-46]
IC50 (human FAP-α; [4]): 13.5 nM | Plateau value (SUVmean) [2]: 0.19 | Blood pool-clearence (T1/2 [min]) [2]: 5.3 min | tumor-blood-ratios ([1]; Lu labeled, 1, 4 and 24 h, compared with FAPI-04): significantly higher ratios than FAPI-04

N#C[C@@H]1CC(F)(F)CN1C(=O)CNC(=O)c1ccnc2ccc(OCCCN3CCN(CCN4CCN(CC(=O)O)CCN(CC(=O)O)CCN(CC(=O)O)CC4)CC3)cc12 [FAPI-47]
IC50 (human FAP-α; [4]): 42 nM

N#C[C@@H]1CC(F)(F)CN1C(=O)CNC(=O)c1ccnc2ccc(OCCCN3CCN(CCCN4CCN(CC(=O)O)CCN(CC(=O)O)CCN(CC(=O)O)CC4)CC3)cc12 [FAPI-48]
IC50 (human FAP-α; [4]): 26.3 nM

CN(CCCN1CCN(C(=O)CN2CCN(CC(=O)O)CCN(CC(=O)O)CC2)CC1)c1ccc2nccc(C(=O)NCC(=O)N3CC(F)(F)C[C@H]3C#N)c2c1 [FAPI-52]
IC50-values (human FAP-α; HT-1080-FAP cells): lower nanomolar range

N#C[C@@H]1CCCN1C(=O)CNC(=O)c1ccnc2ccc(OCCCN3CCN(C(=O)CN4CCN(CC(=O)O)CCN(CC(=O)O)CC4)CC3)cc12 [FAPI-74]
IC50 (human FAP-α; F-18-FAPI derivatives, table title says EC50, head says IC50): 9.2 nM | Plateau value (SUVmean) [2]: 0.32 | Blood pool-clearence (T1/2 [min]) [2]: 2.4 min | PET imaging findings ([3]; F-18 labeled (nicotinamide or AlF-18 NOTA), up to 140 min after i.v.): high target specificity and fast clearance
